# Key:
# [1] = Plasma and tissue distribution of Lamivudine in rats, liquid chromatography; type: in vivo, rat; conditions: Lamivudine 15 mg/kg, n = 6
# Description: The pharmaceutical composition of the present invention enhances the Lamivudine level in the rat liver. Grouping of the test animals and administration are the same as the Example 1 (except that the drug used is the same as Example 3). The dosage of Lamivudine is 15 mg/kg, and the bupleurum root polysaccharides are at a corresponding dosage. The Lamivudine content was determined by liquid chromatography. 0.1 mL of plasma is added with 10 μL of 0.2 mol ammonium acetate, and then with 1 mL of acetonitrile, vortexed, and centrifuged. The supernatant is collected and injected for determination. 0.1 g of the tissue sample is added with 1 mL of physiological saline, homogenized, and treated following the same method as for the plasma sample. The Lamivudine contents in the plasma and tissue sample are determined.
# [2] = drug modified with monophosphorylation, compared with the control group; cited from earlier work
# [3] = In vivo distribution of Entecavir in mice; conditions: Entecavir 0.1 mg/kg, 5 consecutive days, combination with high dosage of polysaccharides (as Example 5), n = 6
# Description: The bupleurum root polysaccharides enhance the distribution of Entecavir in liver, and reduce its distribution in other tissues.
# The drug of Example 5 is used.
# 20 male mice are fasted for one night, but free accessed to water before the experiment. The animals are divided into three groups according to body weight, including a treatment group with Entecavir, and treatment groups with bupleurum root polysaccharides combined with Entecavir. The animals are administered for 5 consecutive days. The dosage of Entecavir is 0.1 mg/kg, and the corresponding dosage of bupleurum root polysaccharides in Example 5 is a high dosage, one-half of which is a low dosage. The animals are sacrificed after the last administration and the blood, heart, liver, spleen, lung, kidney, intestine, stomach, bone marrow, and brain are taken. 100 μL of plasma is directly precipitated by adding 800 μL of acetonitrile, and the supernatant is frozen and centrifuged. 500 μL of the supernatant is blow dried with nitrogen, and 100 μL of the mobile phase is added for reconstitution, and injected for analysis. 0.1 g of the tissue is added with 1 mL of water and homogenized. The homogenate is treated following the treatment method for the plasma.
# Effect of bupleurum root polysaccharides on in vivo distribution of Entecavir (ng/mL)
# [4] = system: duck hepatitis B virus (DHBV); experiment: Effect against duck hepatitis B virus in DHBV-infected ducklings; type: in vivo; conditions: DHBV-infected ducks; Telbivudine 80 mg·kg^−1 alone, gastric perfusion twice a day, 10 days; 100% for control group
# HBV = experiment: Inhibition of HBV replication in HepG2.215 cells (HBsAg/HBeAg by ELISA, HBV gene by fluorescent quantitative PCR); type: cell-based, Hepatitis B Virus; conditions: for Expression of HBV gene / HBeAg / HBsAg: normalized, 100% for control group; for HBeAg / HBsAg: HepG2.215 supernatant, 48 h
# Description: The drug of Example 4 is used. The concentration of Adefovir Dipivoxil was 1 μmol, and the vinegar-baked bupleurum root polysaccharides are at a medium dosage in corresponding dosage, one-half of the medium dosage is a low dosage, and twice of the medium dosage is a high dosage.
# The experiment is started with HepG2.215 cells that were grown to 80% confluence.
# The cells were assigned to 5 groups, comprising a blank control group, a treatment group with Adefovir Dipivoxil, a treatment group with Adefovir Dipivoxil in combination with high dosage of vinegar-baked bupleurum root polysaccharides, a treatment group with Adefovir Dipivoxil in combination with medium dosage of vinegar-baked bupleurum root polysaccharides, and a treatment group with Adefovir Dipivoxil in combination with low dosage of vinegar-baked bupleurum root polysaccharides. Culturing for 48 h after administration, the supernatant is collected, the expression of the HBV gene is determined by fluorescent quantitative PCR, and the HBsAg and HBeAg concentrations are determined by ELISA.
# The experiment is started with HepG2.215 cells that are grown to 80% confluence. The cells were assigned to 5 groups, comprising a blank control group, a treatment group with Tenofovir, a treatment group with Tenofovir in combination with high, medium, and low dosage of vinegar-baked bupleurum root polysaccharides. The concentration of Tenofovir is 0.8 μmol, the medium dosage of vinegar-baked bupleurum root polysaccharides is a corresponding dosage in Example 7, one-half of which is the low dosage, and twice of which is the high dosage. Culturing for 48 h after administration, the supernatant is collected, the expression of the HBV gene is determined by fluorescent quantitative PCR, and the HBsAg and HBeAg concentrations are determined by ELISA.
# [5] = Tissue distribution of oxymatrine (OM) and its metabolite matrine (M) in rats, LC-MS; type: in vivo, rat; conditions: po, OM 54 mg/kg single administration, sampled at 20, 60, 240 min, n = 6
# Description: The pharmaceutical composition of the present invention enhances the distribution of oxymatrine (OM) in the rat liver. 36 rats are acclimated for 7 days, and randomized into a treatment group with oxymatrine (OM) alone, and a treatment group with a combined drug of the present invention (drug in Example 1). Wherein, the dosage of oxymatrine (OM) is 54 mg/kg, and the bupleurum root polysaccharides are used at a corresponding dosage in Example 1. After a single administration, blood is sampled from the abdominal aorta respectively at 20 min, 60 min, and 240 min. The rat is sacrificed, from which the liver, spleen, lung, kidney, and heart are removed. […] The concentrations of oxymatrine (OM) and its metabolite (M) are determined by LC-MS, the content in the tissue and the area under the curve are calculated.
# [6] = HepG2.215, 48 h, text summary of Table 4
# [7] = Adefovir Dipivoxil 1 μmol alone
smiles,measurement,setting,value
Nc1ccn([C@@H]2CS[C@H](CO)O2)c(=O)n1 [Lamivudine],AUC,"[1]; rat heart, read-out: AUC of Lamivudine, Heart",26.8 ng·h/mL
same,AUC,"[1]; rat kidney, read-out: AUC of Lamivudine, Kidney",24.3 ng·h/mL
same,AUC,"[1]; rat liver, read-out: AUC of Lamivudine, Liver",27.3 ng·h/mL
same,AUC,"[1]; rat lung, read-out: AUC of Lamivudine, Lung",23.1 ng·h/mL
same,AUC,"[1]; rat plasma, read-out: AUC of Lamivudine, Plasma",25.4 ng·h/mL
same,AUC,"[1]; rat spleen, read-out: AUC of Lamivudine, Spleen",30.2 ng·h/mL
same,AUC,"[1]; rat stomach, read-out: AUC of Lamivudine, Stomach",28.8 ng·h/mL
same,increase of AUC,[2],11.2 times
same,increase of the concentration of Lamivudine in the liver,[2],7.7 times
C=C1[C@H](CO)[C@@H](O)C[C@@H]1n1cnc2c(=O)[nH]c(N)nc21 [Entecavir],"Entecavir concentration, Marrow",[3]; mouse bone marrow,18.9 ng/L
same,"Entecavir concentration, Heart",[3]; mouse heart,26.14 ng/L
same,"Entecavir concentration, Instine",[3]; mouse intestine,24.3 ng/L
same,"Entecavir concentration, Kidney",[3]; mouse kidney,27.5 ng/L
same,"Entecavir concentration, Liver",[3]; mouse liver,26.8 ng/L
same,"Entecavir concentration, Lung",[3]; mouse lung,26.3 ng/L
same,"Entecavir concentration, Plasma",[3]; mouse plasma,30.6 ng/L
same,"Entecavir concentration, Spleen",[3]; mouse spleen,28.4 ng/L
same,"Entecavir concentration, Stomach",[3]; mouse stomach,25.6 ng/L
Cc1cn([C@@H]2C[C@@H](O)[C@H](CO)O2)c(=O)[nH]c1=O [Telbivudine],Expression of HBV gene,[4],50.5 ± 5.3%
same,HBeAg,[4],37.2 ± 3.4%
same,HBsAg,[4],30 ± 1.3%
CC(C)(C)C(=O)OCOP(=O)(COCCn1cnc2c(N)ncnc21)OCOC(=O)C(C)(C)C [Adefovir Dipivoxil],Expression of HBV gene,"HBV; HepG2.215, 48 h, Adefovir Dipivoxil 1 μmol alone",50 ± 5.3%
same,inhibition rate for gene expression,HBV; [6],50%
same,"inhibition rate on the replication of HBV (HBsAg, HBeAg)",HBV; [6],60-65%
same,HBeAg,HBV; [7],40 ± 3.4%
same,HBsAg,HBV; [7],35 ± 1.2%
C[C@H](Cn1cnc2c(N)ncnc21)OCP(=O)(O)O [Tenofovir],Expression of HBV gene,"HBV; HepG2.215, 48 h, Tenofovir 0.8 μmol alone",45.2 ± 5.3%
same,HBeAg,HBV; Tenofovir 0.8 μmol alone,39.8 ± 2.4%
same,HBsAg,HBV; Tenofovir 0.8 μmol alone,33.2 ± 1.2%
"O=C1CCC[C@@H]2[C@H]3CCC[N+]4([O-])CCC[C@@H](CN12)[C@@H]34 (some centres unmarked) [OM, oxymatrine]",AUC,"[5]; rat heart, read-out: AUC of oxymatrine, Heart",125 ng·h/mL
same,AUC,"[5]; rat kidney, read-out: AUC of oxymatrine, Kidney",69.7 ng·h/mL
same,AUC,"[5]; rat liver, read-out: AUC of oxymatrine, Liver",125 ng·h/mL
same,AUC,"[5]; rat lung, read-out: AUC of oxymatrine, Lung",366 ng·h/mL
same,AUC,"[5]; rat plasma, read-out: AUC of oxymatrine, Plasma",520 ng·h/mL
same,AUC,"[5]; rat spleen, read-out: AUC of oxymatrine, Spleen",64.9 ng·h/mL

# From patent US10729713B2, “Pharmaceutical composition for treating hepatitis, liver fibrosis, and liver cancer” (GUANGDONG PROVINCIAL HOSPITAL OF CHINESE MEDICINE, priority 2016, dated 2020)
